The values that follow come from patent publication US10272081B2, “SHIP1 modulators and methods related thereto” (Aquinox Pharmaceuticals (Canada) Inc., priority 2013, dated 2019).

For this test, the target named is T1, His-hSHIP1 enzyme (Homo sapiens, UniProt Q92835).
T1 construct: His
T1 sequence (Q92835 1-1189): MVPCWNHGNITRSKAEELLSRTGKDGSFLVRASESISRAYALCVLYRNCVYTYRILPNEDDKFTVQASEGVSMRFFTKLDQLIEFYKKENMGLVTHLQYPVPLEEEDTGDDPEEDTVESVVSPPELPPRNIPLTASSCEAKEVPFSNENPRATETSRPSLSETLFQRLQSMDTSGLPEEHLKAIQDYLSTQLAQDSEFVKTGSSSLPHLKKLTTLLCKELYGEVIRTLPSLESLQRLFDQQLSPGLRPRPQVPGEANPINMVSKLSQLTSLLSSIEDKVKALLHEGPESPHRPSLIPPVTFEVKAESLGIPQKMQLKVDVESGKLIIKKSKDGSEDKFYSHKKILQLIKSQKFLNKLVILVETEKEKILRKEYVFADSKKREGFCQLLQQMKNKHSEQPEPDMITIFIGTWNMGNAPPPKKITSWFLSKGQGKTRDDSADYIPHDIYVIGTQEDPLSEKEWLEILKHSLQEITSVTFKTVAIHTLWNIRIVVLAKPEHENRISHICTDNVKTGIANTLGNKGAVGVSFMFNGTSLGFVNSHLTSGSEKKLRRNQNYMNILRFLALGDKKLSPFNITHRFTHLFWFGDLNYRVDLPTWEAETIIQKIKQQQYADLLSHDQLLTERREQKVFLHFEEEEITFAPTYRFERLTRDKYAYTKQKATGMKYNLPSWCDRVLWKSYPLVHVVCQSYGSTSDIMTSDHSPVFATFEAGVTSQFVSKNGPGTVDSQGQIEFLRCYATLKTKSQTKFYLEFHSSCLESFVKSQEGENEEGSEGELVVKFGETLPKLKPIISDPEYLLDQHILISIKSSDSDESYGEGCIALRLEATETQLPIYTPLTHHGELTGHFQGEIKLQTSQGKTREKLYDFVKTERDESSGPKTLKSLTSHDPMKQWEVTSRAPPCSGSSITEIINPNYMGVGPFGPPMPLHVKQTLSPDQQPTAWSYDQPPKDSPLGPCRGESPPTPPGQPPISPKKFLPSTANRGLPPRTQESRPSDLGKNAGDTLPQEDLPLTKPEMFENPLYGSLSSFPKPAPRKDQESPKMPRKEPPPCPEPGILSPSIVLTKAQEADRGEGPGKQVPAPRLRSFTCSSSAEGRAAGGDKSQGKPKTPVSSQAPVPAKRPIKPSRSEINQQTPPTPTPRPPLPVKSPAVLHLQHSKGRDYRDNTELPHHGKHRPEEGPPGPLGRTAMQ
The test can be described thus: His-hSHIP1 activity, approach 1 (phosphate release from IP4, Biomol Green). The test is classed as biochemical. The note with it: activation of His-hSHIP1; IP4 50 μM; test compound 0-300 μM; no asterisk in Table 2. How it is done: Test compounds are dissolved in 95% ethanol to form stock solutions. Before screening, the stock solutions are diluted with Phosphatase Assay Buffer (20 mM Tris-HCL, 10 mM MgCl2 pH 7.5, 0.02% Tween 20) to form working assay solutions that contain 10% ethanol. The assay is carried out on 96-well microtiter plates using a modified procedure of that reported by Ong et al., Blood 110, 1942-1949, 2007 and Yang et al., Org Lett 7, 1073-1076, 2005, both of which references are incorporated herein by reference in their entirety.
Data were generated by one of two variant methods. Test compounds are screened by one of two approaches described as follows. In the first approach, each reaction contains 5 μL of His-hSHIP1 enzyme (5-20 ng), 10 μL of the substrate, 1,3,4,5-inositol tetrakisphosphate (IP4; 50 μM final), 5 μL of Phosphatase Assay Buffer, and 5 µL of test compound at various concentrations in 10% ethanol (0-300 μM final). Control blanks are also prepared by replacing His-hSHIP1 enzyme, IP4, or test compounds with Phosphatase Assay Buffer. After adding the reaction components in a 96-well microtiter plate on ice, the reaction is mixed by briefly shaking the plate vigorously. The reaction is then incubated at 37° C. for 15 min with gentle shaking followed by addition of 100 μL of Biomol Green Reagent (BIOMOL, Pa., USA) to terminate the reaction. The free phosphate released from IP4 by His-hSHIP1 binds to the Biomol Green Reagent, which turns the dye to green color. After incubating the mixture for 20 min at room temperature for color development, the absorbance is read with SpectraMax Plus 96-well plate reader (Molecular Devices, Sunnyvale, Calif., USA) at a wavelength of 650 nm.
Regarding `COc1cc(C)cc(C(=O)[C@H]2[C@H](C)C(NCCCN)C[C@H]3C(C)(C)CCC[C@]23C)c1.Cl.Cl` (stereo partly drawn) [Compound No. 11, (3S,4S,4aS,8aS)-N-(3-aminopropyl)-4-[(3-methoxy-5-methylphenyl)carbonyl]-3,4a,8,8-tetramethyl-decahydronaphthalen-2-amine dihydrochloride], the “Scoring, Approach 1 (% increase relative to background)” value is recorded as “+++ (x ≥65)”.
Take `COc1cc(OC)cc(C(=O)[C@H]2[C@@H](C)[C@H](O)C[C@H]3C(C)(C)CCC[C@]23C)c1` [Compound No. 52, (2R,3R,4S,4aS,8aS)-4-[(3,5-dimethoxyphenyl)carbonyl]-3,4a,8,8-tetramethyl-decahydronaphthalen-2-ol]: the “Scoring, Approach 1 (% increase relative to background)” value is reported as “+++ (x ≥65)”.
As to `Cc1cc(O)cc(C(=O)[C@H]2[C@H](C)C(=O)C[C@H]3C(C)(C)CCC[C@]23C)c1` [Compound No. 8, (3S,4S,4aS,8aS)-4-[(3-hydroxy-5-methylphenyl)carbonyl]-3,4a,8,8-tetramethyl-decahydronaphthalen-2-one], the “Scoring, Approach 1 (% increase relative to background)” value was “+ (0 < x < 50)”.
In the case of `COc1cc(OC)cc(C(=O)[C@H]2C(C)=CC[C@H]3C(C)(C)CCC[C@]23C)c1` [Compound No. 51, [(1S,4aS,8aS)-2,5,5,8a-tetramethyl-1,4,4a,5,6,7,8,8a-octahydronaphthalen-1-yl](3,5-dimethoxyphenyl)methanone], the “Scoring, Approach 1 (% increase relative to background)” value was “++ (50 ≤ x < 65)”.
For `COc1cc(C)cc(C(=O)[C@H]2[C@@H](C)[C@H](O)C[C@H]3C(C)(C)CCC[C@]23C)c1` [Compound No. 6, (2R,3R,4S,4aS,8aS)-4-[(3-methoxy-5-methylphenyl)carbonyl]-3,4a,8,8-tetramethyl-decahydronaphthalen-2-ol] the value was “+ (0 < x < 50)”; for `COc1cc(OC)cc(C(=O)[C@H]2[C@H](C)[C@H](N)C[C@H]3C(C)(C)CCC[C@]23C)c1` [Compound No. 55, (2R,3S,4S,4aS,8aS)-4-[(3,5-dimethoxyphenyl)carbonyl]-3,4a,8,8-tetramethyl-decahydronaphthalen-2-amine], “+ (0 < x < 50)”; for `COc1cc(C)cc(OC[C@@H]2[C@@]3(C)CCCC(C)(C)[C@@H]3CC[C@@]2(C)O)c1` [Compound No. 27, (1S,2R,4aS,8aS)-1-(3-methoxy-5-methylphenoxymethyl)-2,5,5,8a-tetramethyl-decahydronaphthalen-2-ol], “++ (50 ≤ x < 65)”.
As for `CC1=CC[C@H]2C(C)(C)CCC[C@]2(C)[C@H]1COc1cc(C)cc(O)c1` [Compound No. 29, 3-{[(1S,4aS,8aS)-2,5,5,8a-tetramethyl-1,4,4a,5,6,7,8,8a-octahydronaphthalen-1-yl]methoxy}-5-methylphenol], the entry is “+++ (x ≥65)”.
For `COc1cc(OC)cc(C(=O)C[C@H]2[C@@H](C)CC[C@H]3C(C)(C)CCC[C@]23C)c1` [Compound No. 46, 2-[(1S,2S,4aS,8aR)-2,5,5,8a-tetramethyl-decahydronaphthalen-1-yl]-1-(3,5-dimethoxyphenyl)ethan-1-one] the value was “++ (50 ≤ x < 65)”; for `COc1cc(OC)cc(C(=O)[C@@H]2[C@@]3(C)CCCC(C)(C)[C@@H]3CC[C@@]2(C)O)c1` [Compound No. 50, (1R,2R,4aS,8aS)-1-[(3,5-dimethoxyphenyl)carbonyl]-2,5,5,8a-tetramethyl-decahydronaphthalen-2-ol], “++ (50 ≤ x < 65)”; for `COc1cc(OC)cc(C(=O)C[C@@H]2[C@@]3(C)CCCC(C)(C)[C@@H]3CC[C@@]2(C)O)c1` [Compound No. 45, 2-[(1R,2R,4aS,8aS)-2-hydroxy-2,5,5,8a-tetramethyl-decahydronaphthalen-1-yl]-1-(3,5-dimethoxyphenyl)ethan-1-one], “++ (50 ≤ x < 65)”.
For `COc1cc(O)cc(NC(=O)C2=C(C)CC[C@H]3C(C)(C)CCC[C@]23C)c1` [Compound No. 42, (4aS,8aS)-N-(3-hydroxy-5-methoxyphenyl)-2,5,5,8a-tetramethyl-3,4,4a,5,6,7,8,8a-octahydronaphthalene-1-carboxamide], the “Scoring, Approach 1 (% increase relative to background)” value was “+ (0 < x < 50)”.
For `COc1cc(OC)cc(C(=O)[C@H]2[C@@H](C)C(=O)C[C@H]3C(C)(C)CCC[C@]23C)c1` [Compound No. 53, (3R,4S,4aS,8aS)-4-[(3,5-dimethoxyphenyl)carbonyl]-3,4a,8,8-tetramethyl-decahydronaphthalen-2-one] the value was “++ (50 ≤ x < 65)”; for `COc1cc(C)cc(OC[C@H]2C(C)C(O)C[C@H]3C(C)(C)CCC[C@]23C)c1` (stereo partly drawn) [Compound No. 30, (4S,4aS,8aS)-4-(3-methoxy-5-methylphenoxymethyl)-3,4a,8,8-tetramethyl-decahydronaphthalen-2-ol], “+ (0 < x < 50)”.
As for `C[C@H]1CC[C@H]2C(C)(C)CCC[C@]2(C)[C@H]1CCc1cc(O)cc(O)c1` [Compound No. 62, 5-{2-[(1S,2S,4aS,8aR)-2,5,5,8a-tetramethyl-decahydronaphthalen-1-yl]ethyl}benzene-1,3-diol], the entry is “+++ (x ≥65)”.
Consider `Cc1cc(O)cc(C(=O)[C@H]2[C@H](C)C(C(N)=O)C[C@H]3C(C)(C)CCC[C@]23C)c1` (stereo partly drawn) [Compound No. 65, (3S,4S,4aS,8aS)-4-[(3-hydroxy-5-methylphenyl)carbonyl]-3,4a,8,8-tetramethyl-decahydronaphthalene-2-carboxamide], for which the “Scoring, Approach 1 (% increase relative to background)” value is given as “+++ (x ≥65)”.
For `Cc1cc(O)cc(C(=O)C2[C@@H](C)[C@H](O)C[C@H]3C(C)(C)CCC[C@]23C)c1` (stereo partly drawn) [Compound No. 9, (2R,3R,4aS,8aS)-4-[(3-hydroxy-5-methylphenyl)carbonyl]-3,4a,8,8-tetramethyl-decahydronaphthalen-2-ol] the value was “+ (0 < x < 50)”.
As for `CC1=CC[C@H]2C(C)(C)CCC[C@]2(C)C1C(=O)c1cc(C)cc(O)c1` (stereo partly drawn) [Compound No. 4, 3-{[(4aS,8aS)-2,5,5,8a-tetramethyl-1,4,4a,5,6,7,8,8a-octahydronaphthalen-1-yl]carbonyl}-5-methylphenol], the entry is “++ (50 ≤ x < 65)”.
For `COc1ccc(CN[C@@H]2C[C@H]3C(C)(C)CCC[C@]3(C)[C@@H](C(=O)c3cc(OC)cc(OC)c3)[C@@H]2C)cc1` [Compound No. 54, (2R,3S,4S,4aS,8aS)-4-[(3,5-dimethoxyphenyl)carbonyl]-N-[(4-methoxyphenyl)methyl]-3,4a,8,8-tetramethyl-decahydronaphthalen-2-amine] the value was “++ (50 ≤ x < 65)”; for `Cc1cc(O)cc(C(=O)[C@H]2[C@H](C)C(O)C[C@H]3C(C)(C)CCC[C@]23C)c1` (stereo partly drawn) [Compound No. 23, (3S,4S,4aS,8aS)-4-[(3-hydroxy-5-methylphenyl)carbonyl]-3,4a,8,8-tetramethyl-decahydronaphthalen-2-ol], “+ (0 < x < 50)”.
